According to patent US20250270648A1, “MOLECULAR SIGNATURE FOR ASSESSING THE RESPONSIVENESS OF CANCER TO MITOCHONDRIA-TARGETED ANTIOXIDANTS” (UNIVERSITÉ CATHOLIQUE DE LOUVAIN, priority 2021, published 2025):

How the values were obtained:
[1] = system: Human MDA-MB-231 breast cancer cells; assay: Cell viability, crystal violet; type: cell-based; conditions: increasing doses of cisplatin ±100 nM MitoQ, 48 h
Method: […] The solution was carefully removed and plates were washed twice with water. After drying protected by light, cells were resuspended in 50 μl DMSO and the plates were read with a Victor X4 plate reader (Perkin®).

MDA-MB-436 cells [2] = assay: RT-qPCR of EMT markers; type: cell-based, human; conditions: MitoQ 100 nM, 48 h
Method: (§1) Total mRNA from MDA-MB-231, SkBr3 and MDA-MB-436 cells treated ±MitoQ for 48 h was extracted using the NucleoSpin RNA Kit (Macherey-Nagel®). Total mRNA from primary tumors was extracted with Tri reagent (Molecular Research Center®, Cat #TR118). mRNAs were quantified by the Qubit BR dsRNA assay kit (Thermo Fisher Scientific®), and mRNA integrity was evaluated on an Agilent® 2100 Bioanalyzer with the RNA 6000 nano kit (Agilent®). It was reverse transcribed in complementary DNA using the High-Capacity cDNA Reverse Transcription Kit (Applied Biosystems®, cat #4368814) according to manufacturer's protocol. Complementary DNA (500 ng) was amplified by real time quantitative PCR (RT-qPCR) using the low ROX SYBR Master Mix dTTP Blue (Eurogentec®) and primers listed in Table 5 and Table 6 on a ViiA 7 Real-Time PCR System (Thermo Fisher Scientific®). Gene expression was normalized to β-actin gene expression.

SkBr3 cells [3] = assay: RT-qPCR of EMT markers; type: cell-based, human; conditions: MitoQ 500 nM, 48 h
Method: as §1

MDA-MB-231 cells [4] = assay: RT-qPCR of EMT markers; type: cell-based, human; conditions: MitoQ 500 nM, 48 h
Method: as §1

[5] = system: MDA-MB-231 human breast cancer cells; assay: Metastatic take assay, tail vein injection of pretreated cells; type: in vivo, mouse; conditions: cells pretreated 6 h with 1 μM MitoQ
Method: For metastasis take assays, cancer cells were pretreated ±MitoQ for 6 h, and 10^6 viable cells were injected into the tail vein of five weeks-old female Rj:NMRI-Foxn1nu/nu mice (Janvier). After 4 weeks, mice were sacrificed and the lungs insufflated with 3 mL of Indian ink (15% in ddH2O). Mouse lungs were removed, washed with PBS and incubated overnight in Fekete's solution (700 mL/L 100% ethanol, 32 mL/L 37% formalin, 40 mL/L glacial acetic acid, diluted in ddH2O). The next morning, lungs were transferred to a 70% ethanol solution and were further examined under a Stemi 2000-C dissection stereomicroscope (Zeiss®) to count the number of metastasis per lung.

MDA-MB-436 cells [6] = assay: Cell invasion, Boyden chamber; type: cell-based, human; conditions: MitoQ 100 nM, 48 h
Method: (§2) Cell chemotaxis was assayed in a 48-well micro-chemotaxis chamber (Neuroprobe® AP48) with polycarbonate porous membrane (8-μm diameter, Neuroprobe® PFB8) coated with 5 μg/mL of fibronectin, according to manufacturer's instructions. Briefly, MDA-MB-231 (20,000 cells/well), SkBr3 (40,000 cells/well) or MDA-MB-436 (80,000 cells/well) cells were seeded in the upper compartment in culture media deprived of FBS, and 0.2% (v/v) FBS-containing medium (for MDA-MB-231 and MDA-MB-436 cells) or 10% (v/v) FBS-containing medium supplemented with 10 ng/mL of human EGF (PrepoTech®, cat #AF-100-15) (for SkBr3 cells) were used as chemo-attractants. Cells were allowed to invade through the membrane overnight. Membranes were then washed with PBS, fixed in methanol, and stained with crystal violet (0.23% v/v). Pictures were acquired under an Axiovert™ 40 CFL microscope (Zeiss®) equipped with a MRC camera (Zeiss®). Quantification was performed using the Image J software.

SkBr3 cells [7] = assay: Cell invasion, Boyden chamber; type: cell-based, human; conditions: MitoQ 100 nM, 48 h
Method: as §2

MDA-MB-231 cells [8] = assay: Cell invasion, Boyden chamber; type: cell-based, human; conditions: MitoQ 100 nM, 48 h
Method: as §2

MDA-MB-231 cancer cells = assay: Cell morphology, H&E; type: cell-based, human; conditions: MitoQ 100 to 500 nM, 48 h
Method: (§3) To visualize cell morphology, MDA-MB-231, SkBr3 and MDA-MB-436 cells were seeded in 24-well plates and treated ±MitoQ for 48 h, fixed in 100% methanol for 10 min stained with hematoxylin and eosin (H&E) for 10 min each, washed with water and dried. Pictures were acquired on an Axiovert 40 CFL microscope (Zeiss®) equipped with a MRC camera (Zeiss®).

SkBr3 cancer cells = assay: Cell morphology, H&E; type: cell-based, human; conditions: MitoQ 100 to 500 nM, 48 h
Method: as §3

MDA-MB-436 spheroids = assay: Spheres / stem-like spheroids; type: cell-based, human; conditions: increasing doses of MitoQ, over 1 week
Method: 3D models were used to obtain an enriched population in stem cells. For that, 10^4 MDA-MB-231, SkBr3 or MDA-MB-436 cancer cells were grown in suspension using 10 cm dishes coated with Polyhema in stem-cell medium: DMEM/F-12 (Gibco®, cat #11320033) supplemented with 100 units/mL penicillin, 100 μg/mL streptomycin, 20 μL/mL B27 (Gibco®, cat #17504044), 20 ng/mL human recombinant epithelial growth factor (EGF) (Peprotech®, cat #AF-100-15), 10 ng/mL basic fibroblast growth factor (bFGF; Peprotech®, cat #100-18B) and 2.5 mg/mL insulin. When spheres reached around 100 μm in diameter, they were washed with PBS and dissociated with accutase (Stem Cell Technology®, cat #07920) in order to have single cells again. […] Images were captured on Axiovert™ 40 CFL microscope equipped with a MRC camera. At the end of the treatment, living cells were collected for RNA extraction.
Stem like-spheroids were prepared by seeding 5,000 MDA-MB-231, SkBr3 or MDA-MB-436 dissociated spheres/well in ultra-Low attachment 96-well plates (Corning®, cat #7007) in stem cell medium supplemented as described above. […] Spheroid growth was monitored using an Axio Observer live-cell phase contrast microscope (Zeiss®).

**Q.** What does the source list for `COC1=C(OC)C(=O)C(CCCCCCCCCC[P+](c2ccccc2)(c2ccccc2)c2ccccc2)=C(C)C1=O` [MitoQ]?
**A.** cancer cell killing activity, cisplatin combined with MitoQ [1]: did not interfere; mRNA expression of EMT markers VIM (vimentin), SNAI1, SNAI2 and TWIST1 (MDA-MB-436 cells [2]): downregulated; mRNA expression of all analyzed EMT inducers (SkBr3 cells [3]): repressed; SLUG/SNAI2 transcription (MDA-MB-231 cells [4]): not significantly altered; mRNA expression of EMT markers vimentin (VIM), SNAIL (SNAI1), ZEB1 and TWIST1 (MDA-MB-231 cells [4]): decreased; mice metastasis-free ([5]; at necropsy, four weeks): 36.4%; mice with <2 metastasis ([5]; at necropsy, four weeks): 27.2%; mice with >2 lung metastases ([5]; at necropsy, four weeks): 36.4%; metastasis developed vs mice that received vehicle-treated cells ([5]; four weeks after injection of 10^6 cells): significantly less; cell invasion (MDA-MB-436 cells [6]): inhibited; invasive capability (SkBr3 cells [7]): highly significantly reduced; invasive capability (MDA-MB-231 cells [8]): highly significantly reduced; Morphological changes (MDA-MB-231 cancer cells): not obvious; Morphological changes (SkBr3 cancer cells): not obvious; spheroid formation (MDA-MB-436 spheroids): dose-dependently retarded
